Measurements taken from patent US20230242585A1, “IMMUNOMODULATORS” (Bristol-Myers Squibb Company, priority 2020, published 2023).
Starred links: 1 amine or outer side, 2 acyl side, 3 side chain; linkers in the order of their positions; H or OH if unused. Positions of bridges follow the written chain, without caps; N, C: chain ends. Non-standard residues stand in square brackets, D forms with d. Residues, ends and D or L forms follow the SMILES beside them. X28 = O=C([C@H](CCNC[C@H](O)[C@@H](O)[C@H](O[C@@H]1O[C@H](CO)[C@H](O)[C@H](O)[C@H]1O)[C@H](O)CO)N[*:1])[*:2]; X27 = O=C([C@H](CNC[C@H](O)[C@@H](O)[C@H](O[C@@H]1O[C@H](CO)[C@H](O)[C@H](O)[C@H]1O)[C@H](O)CO)N[*:1])[*:2]; X56 = O=C([C@H](CCNC[C@@H](O)[C@H](O)[C@@H](O)[C@@H](O)[C@H](O)CO)N[*:1])[*:2]; X49 = O=C([C@H](CNC[C@@H](O)[C@H](O)[C@@H](O)[C@@H](O)[C@H](O)CO)N[*:1])[*:2]; X50 = O=C([C@H](CNC[C@@H](O)[C@@H](O)[C@H](O)[C@H](O)C(O)CO)N[*:1])[*:2]; X63 = O=C([C@H](CCNC[C@H](O)[C@@H](O)[C@@H](O)[C@H](O)CO)N[*:1])[*:2]; X11 = O=C([C@H](CNC[C@H](O)[C@@H](O)[C@@H](O)[C@H](O)CO)N[*:1])[*:2]; X35 = O=C([C@H](CNC[C@H](O)[C@H](O)[C@@H](O)[C@@H](O)CO)N[*:1])[*:2]; X3 = O=C([C@H](CNC[C@@H](O)[C@@H](O)[C@H](O)[C@H](O)CO)N[*:1])[*:2]; Trp(1-CH2COOH) = N[C@@H](Cc1cn(CC(=O)O)c2ccccc12)C(=O)O; Hyp = O=C(O)[C@@H]1C[C@@H](O)CN1; NMeNle = CCCC[C@H](NC)C(=O)O; NMeA = CN[C@@H](C)C(=O)O; Dab = NCC[C@H](N)C(=O)O

The compounds below were run against T1, PD-1/PD-L1 (Homo sapiens, UniProt Q9NZQ7) (assay: PD-1/PD-L1 Homogenous Time-Resolved Fluorescence (HTRF) binding assay). Details: PD-L1-His 10 nM, PD-1-Ig 20 nM.
T1 construct: TVMV protease site (linker) (C); made in house; host or cells: HEK293T cells
T1 sequence (Q9NZQ7 18-239): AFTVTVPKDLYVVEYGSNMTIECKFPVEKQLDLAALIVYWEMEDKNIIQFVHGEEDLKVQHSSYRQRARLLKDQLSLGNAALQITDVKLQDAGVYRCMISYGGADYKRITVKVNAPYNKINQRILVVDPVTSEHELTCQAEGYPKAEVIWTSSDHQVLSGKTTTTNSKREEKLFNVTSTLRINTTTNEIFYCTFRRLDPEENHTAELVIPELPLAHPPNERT
Method in brief: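 Compounds preincubated 15 min with PD-L1-His (residues 18-239, 10 nM) in dPBS with 0.1% BSA, 0.05% Tween-20, then PD-1-Ig (residues 25-167, 20 nM) for 15 min. Eu-cryptate anti-Ig (1 nM) and APC anti-His (20 nM) equilibrated 30 min; 665/620 nm ratio read, IC50 derived.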

Row | SMILES | IC50
1 | CCCC[C@H]1C(=O)N(C)[C@@H](CCCC)C(=O)N[C@@H](CC(C)C)C(=O)N[C@H](C(=O)NCC(N)=O)CSCC(=O)N[C@@H](Cc2ccc(O)cc2)C(=O)N(C)[C@@H](C)C(=O)N[C@@H](CC(N)=O)C(=O)N2CCC[C@H]2C(=O)N[C@@H](CNC[C@H](O)[C@@H](O)[C@@H](O)[C@H](O)CO)C(=O)N[C@@H](CC(C)C)C(=O)N2C[C@H](O)C[C@H]2C(=O)N[C@@H](Cc2c[nH]c3ccccc23)C(=O)N[C@@H](CCNC[C@H](O)[C@@H](O)[C@@H](O)[C@H](O)CO)C(=O)N[C@@H](Cc2cn(CC(=O)O)c3ccccc23)C(=O)N1C [Example 2026] ({CH2CO}-Y[NMeA]NP[X11]L[Hyp]W[X63][Trp(1-CH2COOH)][NMeNle][NMeNle]LCG-NH2; thioether N-14) | 1.8 nM
2 | CCCC[C@H]1C(=O)N(C)[C@@H](CCCC)C(=O)N[C@@H](CC(C)C)C(=O)N[C@H](C(=O)NCC(N)=O)CSCC(=O)N[C@@H](Cc2ccc(O)cc2)C(=O)N(C)[C@@H](C)C(=O)N[C@@H](CC(N)=O)C(=O)N2CCC[C@H]2C(=O)N[C@@H](CNC[C@H](O)[C@@H](O)[C@H](O[C@@H]2O[C@H](CO)[C@H](O)[C@H](O)[C@H]2O)[C@H](O)CO)C(=O)N[C@@H](CC(C)C)C(=O)N2C[C@H](O)C[C@H]2C(=O)N[C@@H](Cc2c[nH]c3ccccc23)C(=O)N[C@@H](CCNC[C@H](O)[C@@H](O)[C@H](O[C@@H]2O[C@H](CO)[C@H](O)[C@H](O)[C@H]2O)[C@H](O)CO)C(=O)N[C@@H](Cc2cn(CC(=O)O)c3ccccc23)C(=O)N1C [Example 2028] ({CH2CO}-Y[NMeA]NP[X27]L[Hyp]W[X28][Trp(1-CH2COOH)][NMeNle][NMeNle]LCG-NH2; thioether N-14) | 4.6 nM
3 | CCCC[C@H]1C(=O)N(C)[C@@H](CCCC)C(=O)N[C@@H](CC(C)C)C(=O)N[C@H](C(=O)NCC(N)=O)CSCC(=O)N[C@@H](Cc2ccc(O)cc2)C(=O)N(C)[C@@H](C)C(=O)N[C@@H](CC(N)=O)C(=O)N2CCC[C@H]2C(=O)N[C@@H](CNC[C@@H](O)[C@H](O)[C@@H](O)[C@@H](O)[C@H](O)CO)C(=O)N[C@@H](CC(C)C)C(=O)N2C[C@H](O)C[C@H]2C(=O)N[C@@H](Cc2c[nH]c3ccccc23)C(=O)N[C@@H](CCNC[C@@H](O)[C@H](O)[C@@H](O)[C@@H](O)[C@H](O)CO)C(=O)N[C@@H](Cc2cn(CC(=O)O)c3ccccc23)C(=O)N1C [Example 2029] ({CH2CO}-Y[NMeA]NP[X49]L[Hyp]W[X56][Trp(1-CH2COOH)][NMeNle][NMeNle]LCG-NH2; thioether N-14) | 8.5 nM
4 | CCCC[C@H]1C(=O)N(C)[C@@H](CCCC)C(=O)N[C@@H](CC(C)C)C(=O)N[C@H](C(=O)NCC(N)=O)CSCC(=O)N[C@@H](Cc2ccc(O)cc2)C(=O)N(C)[C@@H](C)C(=O)N[C@@H](CC(N)=O)C(=O)N2CCC[C@H]2C(=O)N[C@@H](CNC[C@@H](O)[C@@H](O)[C@H](O)[C@H](O)C(O)CO)C(=O)N[C@@H](CC(C)C)C(=O)N2C[C@H](O)C[C@H]2C(=O)N[C@@H](Cc2c[nH]c3ccccc23)C(=O)N[C@@H](CCN)C(=O)N[C@@H](Cc2cn(CC(=O)O)c3ccccc23)C(=O)N1C (stereo partly drawn) [Example 2031] ({CH2CO}-Y[NMeA]NP[X50]L[Hyp]W[Dab][Trp(1-CH2COOH)][NMeNle][NMeNle]LCG-NH2; thioether N-14) | 9.1 nM

Compounds with a lower IC50, results first:

Row | IC50 | SMILES
5 | 1.6 nM | CCCC[C@H]1C(=O)N(C)[C@@H](CCCC)C(=O)N[C@@H](CC(C)C)C(=O)N[C@H](C(=O)NCC(N)=O)CSCC(=O)N[C@@H](Cc2ccc(O)cc2)C(=O)N(C)[C@@H](C)C(=O)N[C@@H](CC(N)=O)C(=O)N2CCC[C@H]2C(=O)N[C@@H](CNC[C@@H](O)[C@@H](O)[C@H](O)[C@H](O)CO)C(=O)N[C@@H](CC(C)C)C(=O)N2C[C@H](O)C[C@H]2C(=O)N[C@@H](Cc2c[nH]c3ccccc23)C(=O)N[C@@H](CCN)C(=O)N[C@@H](Cc2cn(CC(=O)O)c3ccccc23)C(=O)N1C [Example 2024] ({CH2CO}-Y[NMeA]NP[X3]L[Hyp]W[Dab][Trp(1-CH2COOH)][NMeNle][NMeNle]LCG-NH2; thioether N-14)
6 | 1 nM | CCCC[C@H]1C(=O)N(C)[C@@H](CCCC)C(=O)N[C@@H](CC(C)C)C(=O)N[C@H](C(=O)NCC(N)=O)CSCC(=O)N[C@@H](Cc2ccc(O)cc2)C(=O)N(C)[C@@H](C)C(=O)N[C@@H](CC(N)=O)C(=O)N2CCC[C@H]2C(=O)N[C@@H](CNC[C@H](O)[C@H](O)[C@@H](O)[C@@H](O)CO)C(=O)N[C@@H](CC(C)C)C(=O)N2C[C@H](O)C[C@H]2C(=O)N[C@@H](Cc2c[nH]c3ccccc23)C(=O)N[C@@H](CCN)C(=O)N[C@@H](Cc2cn(CC(=O)O)c3ccccc23)C(=O)N1C [Example 2027] ({CH2CO}-Y[NMeA]NP[X35]L[Hyp]W[Dab][Trp(1-CH2COOH)][NMeNle][NMeNle]LCG-NH2; thioether N-14)
